This experiment relates to T1, α-galactosidase.
T1 construct: gene aglA; native extracellular enzyme; filtered culture supernatant used as crude enzyme, not purified
As to the kind of experiment: p-nitrophenol release at […] nm, Michaelis-Menten fit (GraphPad Prism […]). Type of experiment: biochemical, Aspergillus niger. Particulars: free enzyme (crude culture supernatant); 50 mM acetate buffer pH 5.5; 37 °C; 10 min; 0.3 to 2.2 mM substrate.

One molecule from article PMC7956481, “Carrier-Free Immobilization of α-Galactosidase as Nano-Biocatalysts for Synthesizing Prebiotic α-Galacto-Oligosaccharides” (Molecules, 2021) can be followed below.

The term Km denotes the substrate concentration at which the rate is half of its maximum. Consider `O=[N+]([O-])c1ccc(O[C@H]2O[C@H](CO)[C@H](O)[C@H](O)[C@H]2O)cc1` [p-Nitrophenyl α-D-galactopyranoside], for which the Km stood at 300 ± 20 µM.
